Reference: patent US9005641B2, “Compositions and methods for preventing or reducing resistance of insects to insecticides” (Rothamsted Research Limited, priority 2002, dated 2015)

How the values were obtained:
[1] = tested on: pyrethroid-resistant H. armigera larvae; experiment: Synergism studies: PBO pre-treatment before pyrethroid, larval mortality
Method: These involved a comparison of esterase inhibition (expressed as % of control, ± standard deviation) incurred by H. armigera larvae over time following topical application of 1 μl PBO (1%), and the effect on mortality of pyrethroid-resistant larvae when exposed to increasing PBO (1 μl, 1% PBO/larva) pre-treatment intervals before fenvalerate (1 μl, 0.125% fenvalerate/larva, FIG. 3) and zeta-cypermethrin (1 μl, 0.01% zeta-cypermethrin/larva, FIG. 4) exposure.

[2] = tested on: pyrethroid resistant second instar H. armigera larvae; experiment: Field trial on cotton, night sprays; assay type: in vivo, Helicoverpa armigera; conditions: one day after treatment; lambdacyhalothrin 15 g a.i./ha, PBO 320 g a.i./ha; strain 20 fold resistant
Method: In the lack of H. armigera pressure on cotton, pyrethroid resistant second instar H. armigera larvae, which were the progeny a field strain originating from Queensland, were placed on cotton plant. The strain was 20 fold resistant to lambdacyhalothrin.
Insecticides were mixed with water.
The trial was conducted on replicated, 1 row×2 m plots. Each plot contained from 13-17 mature cotton plants. There was an unsprayed buffer of two rows between each plot. Just prior to sunset, ten second instar H. armigera larvae were placed onto the terminals of each plant in the test plots and the plots sprayed. H. armigera numbers per plant were assessed one day after treatment. Temperature ranged from 24-26° C. The mean percentage mortality and standard deviation were calculated for each treatment.

SMILES: CC1(C)C(C=C(Cl)Cl)C1C(=O)OC(C#N)c1cccc(Oc2ccccc2)c1 (racemic) [zeta-cypermethrin, (S)-cyano(3-phenoxyphenyl)-methyl(±)-cis-trans-3-(2,2,-dichloroethenyl)-2,2-dimethylcyclo-propanecarboxylate]
- mortality (plateau) ([1]; 1 μl 0.01% zeta-cypermethrin/larva, PBO (1 μl, 1%) pre-treatment interval 4-10 hrs): 100%

SMILES: CC(C)C(C(=O)OC(C#N)c1cccc(Oc2ccccc2)c1)c1ccc(Cl)cc1 (stereo not drawn) [fenvalerate, (R—(R*,S*)-4-chloro-α(1-methylethyl)benzeneacetic acid, cyano (3-phenoxyphenyl)methyl ester)]
- mortality (plateau) ([1]; 1 μl 0.125% fenvalerate/larva, PBO (1 μl, 1%) pre-treatment interval 4-5 hrs): 100%

SMILES: CC1(C)[C@H](C(=O)O[C@H](C#N)c2cccc(Oc3ccccc3)c2)[C@@H]1/C=C(\Cl)C(F)(F)F [lambdacyhalothrin]
- mortality / control of H. armigera [2]: ~40%
